Like-named read-outs stand apart in the source and are kept apart here.
Columns and labels:
[1] = Acute toxicity (LD50) in mice; type: in vivo; details: mouse, in vivo, mice
ornithine decarboxylase [2] = details: in words; comparison substance; cited from earlier work
spermidine production [3] = details: in words; comparison substance; cited from earlier work
males [4] = details: administered to males; comparison substance; cited from earlier work
ornithine decarboxylase [5] = experiment: Inhibition of ornithine decarboxylase; type: biochemical; details: in words; no test data given
spermidine production [6] = experiment: Suppression of spermidine production; details: in words; no test data given
males [7] = experiment: Anti-fertility activity when administered to males; type: in vivo; details: in words, no test data given
Escherichia coli B = experiment: Paper-disc agar-diffusion assay (Scannell et al.), Escherichia coli B as test organism, minimal agar medium; type: cell-based
Source text: (§1) The anti-microbial properties of the compound of the formula I and its salts are shown by the paper-disc agar-diffusion assay as described by Scannell et al. J. Antibiotics 25: 179-184 (1972). In this assay, Escherichia coli B as test organism, the minimal agar medium described by Scanell et al. was employed for the initial detection and during isolation of the antimetabolite. Similar to N^5 -hydroxy-L-arginine, the diameter of the inhibition zone was proportional to the logarithm of concentration of the compound of formula I within the range of 2 to about 100 λg/ml. A two-fold increase of the concentration of the compound of formula I increased the inhibition zone diameter by 3 mm and a […] solution gave a zone of about 36 mm.
(§2) (ATCC 27860) as againt E. coli.

[8] = tested on: Bacillus sp. (ATCC 27860); experiment: Antibiotic activity against Bacillus sp. (ATCC 27860); type: cell-based
Source text: as §1, §2

mice = experiment: Acute toxicity (LD50) in mice; type: in vivo; details: in words

Question: Which LD50 ([1]; ip) does the source give for C[C@](N)(CCCNC(=N)N)C(=O)O here?
Answer: > 1000 mg/kg

Question: What about the LD50 ([1]; po) of the same molecule?
Answer: > 1000 mg/kg

Question: Which results are given for CC(N)(CCCN)C(=O)O (racemic) [D,L-2-methyl ornithine]?
Answer: inhibition of ornithine decarboxylase (ornithine decarboxylase [2]): inhibitor of ornithine decarboxylase; suppression of spermidine production (spermidine production [3]): suppresses spermidine production; anti-fertility activity (males [4]): anti-fertility agent

Question: With C[C@](N)(CCCN)C(=O)O [L-2-methyl ornithine, 2-methyl-L-ornithine] as the molecule, how does the “inhibition of ornithine decarboxylase” value (ornithine decarboxylase [5]) read?
Answer: inhibitor of ornithine decarboxylase

Question: What about the “suppression of spermidine production” value (spermidine production [6]) of the same molecule?
Answer: suppresses spermidine production

Question: And the anti-fertility activity (males [7])?
Answer: anti-fertility agent

Question: What does the source list for C[C@](N)(CCCNC(=N)N)C(=O)O [compound of formula I, 2-methyl-L-arginine]?
Answer: reversal of antibiotic activity against Escherichia coli (Escherichia coli B; by added amino acids): reversed by L-arginine, L-citrulline, L-ornithine and N^2 -acetyl-L-ornithine; activity against Escherichia coli B (Escherichia coli B; in words): active; increase of inhibition zone diameter on two-fold increase of concentration (Escherichia coli B; two-fold increase of the concentration, Escherichia coli B): 3 mm; activity against Bacillus s.p. ([8]; in words): active; level of activity against Bacillus sp. (ATCC 27860) compared with E. coli ([8]; relative to E. coli): approximately the same level of activity; toxicity to vertebrates (mice): relatively non-toxic

Reference: patent US4061542A, “2-Methyl-L-arginine produced by cultivating streptomyces strain” (Hoffmann-La Roche Inc., priority 1976, dated 1977)
